Positions of bridges follow the written chain, without caps; N, C: chain ends. Non-standard residues stand in square brackets, D forms with d. Residues, ends and D or L forms follow the SMILES beside them. d2Nal = N[C@H](Cc1ccc2ccccc2c1)C(=O)O; 3Pal = N[C@@H](Cc1cccnc1)C(=O)O; 4Pal = N[C@@H](Cc1ccncc1)C(=O)O; Cit = NC(=O)NCCC[C@H](N)C(=O)O; Nle = CCCC[C@H](N)C(=O)O; Orn = NCCC[C@H](N)C(=O)O; Aib = CC(C)(N)C(=O)O

The record followed here is patent US20240391954A1, “MC4R AGONIST PEPTIDES” (The Regents of the University of Michigan, priority 2021, published 2024).

What all share (type): cell-based
The target of assay [1] is T1, human MC3R (Homo sapiens, UniProt P41968).
T1 construct: expressed in transfected cells; host or cells: HEK-293 cells stably expressing the GScAMP22F split-luciferase cAMP sensor (parent reporter line from Promega); MC3R clone generated in-house, G418 selection
Briefly: split-luciferase cAMP sensor assay, agonist mode (measurement window 1), hMC3R. As to conditions: for Emax: % maximal activation, read-out: MC3R cAMP % max activation; for Emax / EC50: agonist mode; for EC50: HEK-293 cells stably expressing hMC3R, read-out: MC3R cAMP EC50; for MC4R selectivity vs MC3R: MC4R versus MC3R. The gist of the method:
(§1)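 EC50 values come from a four-parameter variable-slope fit of luminescence in measurement window 1, capturing direct peptide effects on receptor-expressing cells with a cAMP22f luciferase sensor. Cells were preloaded with 4% D-luciferin, serum-free medium; 20 μM forskolin normalized for cell number and transducer efficiency.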

Assay [2] concerns the target T2, human MC4R (Homo sapiens, UniProt P32245).
T2 construct: host or cells: HEK-293 cells stably expressing the GScAMP22F split-luciferase cAMP sensor and hMC4R, G418 selection
The experiment in a line: split-luciferase cAMP sensor assay, agonist mode (measurement window 1), hMC4R. To be noted: agonist mode; for Emax: % maximal activation, read-out: MC4R cAMP % max activation; for EC50: HEK-293 cells stably expressing hMC4R, read-out: MC4R cAMP EC50. In outline: as §1

Assay [3] has as its target T3, human MC1R (Homo sapiens, UniProt Q01726).
T3 construct: expressed in transfected cells; host or cells: HEK-293 cells stably expressing hMC1R and the GScAMP22F cAMP sensor
The experiment in a line: split-luciferase cAMP sensor assay, agonist mode, hMC1R. To be noted: MC4R versus MC1R. Here is the method: FIG. 4A-B. (A) Pharmacological properties of exemplary MC4R agonist peptides, including those with improved efficacy in the MC4R+/− mouse (CTX-1211, CTX-1227, and CTX-1228). Concentration-response agonist curves for peptides indicated at the human MC4R (red), human MC3R (blue), human MC5R (green), and human MC1R (black) were determined by a split-luciferase cAMP sensor dynamic assay in HEK-293 cells stably expressing the hMC1R, hMC3R, hMC4R, or hMC5R and the GScAMP22F cAMP sensor. Each data point represents the mean±SEM of two experiments with three replicates each per experiment. Data is normalized to the ECmax of α-MSH. (B) Same as above, for peptides representing reduced activity at the hMC1R. Inset tables indicate EC50 values for the ligand indicated for each receptor.
The assay for the determination of the cAMP response in live cells was described previously. (Yu et al., 2020, Science 368, 428-433; incorporated by reference in its entirety). Cells were seeded at a density of 20,000 cells per well using 384-well poly-D lysine-coated, clear bottom, and black-wall assay plates (Corning Inc. Corning, NJ). Cells were allowed to attach to the plates for 18 to 24 h after which growth media was removed and 20 μl of 4% D-luciferin (Promega) in CO2 independent, serum-free medium (Thermo Fisher Scientific) was added to each well. The luciferase substrate was allowed to permeate the cells for 120 min at 37° C. Intracellular cAMP levels were measured using an FDSS 7000EX Functional Drug Screening System (Hamamatsu Photonics, Hamamatsu, Japan) in the Center for Chemical Genomics at the Life Sciences Institute. This instrument allowed the in-line addition of test-peptides and receptor agonists while simultaneously acquiring the luminescence signal from live cells. Assay read steps were set as follows: baseline acquisition of 2 min, the addition of 10 μl of varying 3× concentrations of test-peptides or vehicle followed by 11 min measurement (measurement window 1), and 10 μl addition of 4× concentration of the endogenous melanocortin agonist α-MSH (Bachem, Bubendorf, Switzerland) followed by an additional 11 min response measurement (measurement window 2). The resulting final concentration of α-MSH was close to the respective receptor EC90 dose for each receptor. Intraplate concentration response curves for α-MSH and SHU-9119 (Phoenix Pharmaceuticals, Burlingame CA) were included as reference controls. A submaximal forskolin (20 μM) concentration was also included to serve as a normalization reference to account for cell number variations and differences in assay transducer efficiency between cell lines.
With this set up it was possible to evaluate the direct effect of the test-peptides on the MC3R and MC4R cell lines during measurement window 1, while the antagonist profile in the presence of EC90 α-MSH was determined on measurement window 2. For data analysis baseline luminescence (i.e. the maximum luminescence signal from the initial 0 to 2 min window) was subtracted from the maximum luminescence obtained during measurement window 1 (2 to 13 min) and measurement window 2 (13 to 24 min) to yield the test-peptide elicited responses. EC50 or IC50 potency values were determined by non-linear regression by fitting the data to a sigmoid four-parameter variable slope model using the GraphPad Prism version 8.4 software package (San Diego CA).

T2 sequence (P32245 whole entry): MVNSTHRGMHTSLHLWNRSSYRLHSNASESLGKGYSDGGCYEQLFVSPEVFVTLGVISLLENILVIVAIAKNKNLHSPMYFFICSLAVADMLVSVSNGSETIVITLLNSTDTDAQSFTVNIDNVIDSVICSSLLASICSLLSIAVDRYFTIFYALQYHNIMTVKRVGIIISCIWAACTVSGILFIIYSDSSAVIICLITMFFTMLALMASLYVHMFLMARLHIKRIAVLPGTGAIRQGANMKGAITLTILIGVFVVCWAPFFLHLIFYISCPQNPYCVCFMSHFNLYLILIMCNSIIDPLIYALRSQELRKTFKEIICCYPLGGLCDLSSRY
T3 sequence (Q01726 whole entry): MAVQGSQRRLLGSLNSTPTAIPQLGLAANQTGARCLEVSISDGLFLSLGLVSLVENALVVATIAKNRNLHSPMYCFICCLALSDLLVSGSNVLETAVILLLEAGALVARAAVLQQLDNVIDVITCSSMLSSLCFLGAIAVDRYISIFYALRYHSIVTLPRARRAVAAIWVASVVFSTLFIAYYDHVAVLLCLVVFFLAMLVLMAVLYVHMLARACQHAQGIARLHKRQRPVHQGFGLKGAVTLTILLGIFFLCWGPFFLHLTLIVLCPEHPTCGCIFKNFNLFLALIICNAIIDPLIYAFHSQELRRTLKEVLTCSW
T1 sequence (P41968 whole entry): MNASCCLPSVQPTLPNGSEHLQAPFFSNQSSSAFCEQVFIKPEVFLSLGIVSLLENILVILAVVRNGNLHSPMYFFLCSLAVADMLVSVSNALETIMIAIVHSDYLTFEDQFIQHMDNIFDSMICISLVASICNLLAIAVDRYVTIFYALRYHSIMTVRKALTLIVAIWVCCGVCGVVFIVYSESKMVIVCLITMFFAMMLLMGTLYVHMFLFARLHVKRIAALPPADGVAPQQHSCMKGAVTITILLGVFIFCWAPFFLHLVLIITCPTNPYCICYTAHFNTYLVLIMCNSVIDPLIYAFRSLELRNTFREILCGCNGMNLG

In general, EC50 refers to the midpoint of the concentration-response curve. As to `CC[C@H]1NC(=O)[C@@H](NC(=O)[C@H](CCCNC(=N)N)NC(C)=O)CSSC[C@@H](C(N)=O)NC(=O)[C@H](Cc2c[nH]c3ccccc23)NC(=O)[C@H](CCCNC(=N)N)NC(=O)[C@@H](Cc2ccccc2)NC(=O)[C@H](Cc2c[nH]cn2)NC1=O` [CTX-1295, Arg-cyclo(Cys-D-Abu-His-D-Phe-Arg-Trp-Cys)], in assay [1], the Emax turned out to be 97%, the EC50 was found to be 1.6 nM and the “MC4R selectivity vs MC3R” value turned out to be 6.31. In assay [2], the Emax worked out at 102% and the EC50 worked out at 0.25 nM. In addition, the “MC4R selectivity vs MC1R” value in assay [3] came out at 2.79.
Turning to `CCCC[C@H](NC(=O)[C@H](CCCNC(=N)N)NC(C)=O)C(=O)N[C@H]1CSSC[C@@H](C(N)=O)NC(=O)[C@H](Cc2ccccc2)NC(=O)[C@H](CCCNC(=N)N)NC(=O)[C@@H](Cc2ccccc2)NC(=O)[C@H](CCCNC(N)=O)NC1=O` [CTX-1626, Arg-Nle-cyclo(Cys-Cit-D-Phe-Arg-Phe-Cys)] (Ac-R[Nle]C[Cit][dF]RFC-NH2; disulfide 3-8 (inferred)), in assay [1], the Emax worked out at 51% and the “MC4R selectivity vs MC3R” value is on record as 1.6. In addition, in assay [2], the Emax was found to be 83%. In assay [3], the “MC4R selectivity vs MC1R” value worked out at 3.05.
For `CC(=O)N[C@@H](CCCNC(=N)N)C(=O)N[C@H]1CSSC[C@@H](C(N)=O)NC(=O)[C@@H](Cc2c[nH]c3ccccc23)NC(=O)[C@H](CCCNC(=N)N)NC(=O)[C@@H](Cc2ccccc2)NC(=O)[C@H](Cc2c[nH]cn2)NC(=O)C(C)(C)NC1=O` [CTX-1296, Arg-cyclo(Cys-Aib-His-D-Phe-Arg-D-Trp-Cys)], in assay [1], the Emax was found to be 93%, the EC50 turned out to be 10 nM and the “MC4R selectivity vs MC3R” value came out at 22. Besides, the Emax in assay [2] turned out to be 99%. The “MC4R selectivity vs MC1R” value in assay [3] is recorded as 11.
As to `CCCC[C@H](NC(=O)[C@H](CCCNC(=N)N)NC(C)=O)C(=O)N[C@H]1CSSC[C@@H](C(N)=O)NC(=O)[C@H](Cc2c[nH]c3ccccc23)NC(=O)[C@H](CCCNC(=N)N)NC(=O)[C@@H](Cc2ccccc2)NC(=O)[C@H](Cc2cccnc2)NC1=O` [CTX-1620, Arg-Nle-cyclo(Cys-Pal(3′)-D-Phe-Arg-Trp-Cys)] (Ac-R[Nle]C[3Pal][dF]RWC-NH2; disulfide 3-8 (inferred)), in assay [1], the Emax amounted to 39% and the “MC4R selectivity vs MC3R” value amounted to 12. Also, in assay [2], the Emax was determined as 91%. In addition, in assay [3], the “MC4R selectivity vs MC1R” value was 47.
On the same counts, the results for `C[C@H]1NC(=O)CSC[C@@H](C(N)=O)NC(=O)[C@H](Cc2ccccc2)NC(=O)[C@H](CCCNC(=N)N)NC(=O)[C@@H](Cc2ccccc2)NC(=O)[C@H](CCCNC(=N)N)NC1=O` [CTX-1657, Thioether-cyclo(D-Ala-Arg-D-Phe-Arg-Phe-Cys)] ({CH2CO}-[dA]R[dF]RFC-NH2; thioether N-6) are 30%, 3.56, 78% and 1.42.
`CC1(C)NC(=O)CSC[C@@H](C(N)=O)NC(=O)[C@H](Cc2ccccc2)NC(=O)[C@H](CCCNC(=N)N)NC(=O)[C@@H](Cc2ccccc2)NC(=O)[C@H](CCCNC(N)=O)NC1=O` [CTX-1652, Thioether-cyclo(Aib-Cit-D-Phe-Arg-Phe-Cys)] ({CH2CO}-[Aib][Cit][dF]RFC-NH2; thioether N-6): the EC50 in assay [1] and in assay [2] was over 10000 nM each time. In assay [1], the “MC4R selectivity vs MC3R” value is on record as “Not active”. The “MC4R selectivity vs MC1R” value in assay [3] is reported as “Not active”.
On to `CC1(C)NC(=O)CSC[C@@H](C(N)=O)NC(=O)[C@H](Cc2ccccc2)NC(=O)[C@H](CCCNC(=N)N)NC(=O)[C@@H](Cc2ccccc2)NC(=O)[C@H](Cc2c[nH]cn2)NC1=O` [CTX-1650, Thioether-cyclo(Aib-His-D-Phe-Arg-Phe-Cys)] ({CH2CO}-[Aib]H[dF]RFC-NH2; thioether N-6), for which, in assay [1], the Emax came to 125% and the “MC4R selectivity vs MC3R” value is listed as 53. Moreover, in assay [2], the Emax amounted to 113% and the EC50 turned out to be 288 nM. For the same compound, in assay [3], the “MC4R selectivity vs MC1R” value came to 0.95.
On to `CC(=O)N[C@@H](CCCNC(=N)N)C(=O)N[C@H]1CSSC[C@@H](C(N)=O)NC(=O)[C@@H](Cc2ccc3ccccc3c2)NC(=O)[C@H](CCCNC(=N)N)NC(=O)[C@@H](Cc2ccccc2)NC(=O)[C@H](CCCNC(=N)N)NC(=O)[C@@H](C)NC1=O` [CTX-1264, Arg-cyclo(Cys-D-Ala-Arg-D-Phe-Arg-D-Nal(2′)-Cys)] (Ac-RC[dA]R[dF]R[d2Nal]C-NH2; disulfide 2-8 (inferred)), for which, in assay [1], the Emax was 44%, the half-maximal effective concentration (EC50) is 3.7 nM and the “MC4R selectivity vs MC3R” value was found to be 0.29. In assay [2], the Emax is 80% and the half-maximal effective concentration (EC50) was determined as 13 nM. Further, the “MC4R selectivity vs MC1R” value in assay [3] is 0.14.
As to `CCCC[C@H](NC(=O)[C@H](CCCNC(=N)N)NC(C)=O)C(=O)N[C@H]1CSSC[C@@H](C(N)=O)NC(=O)[C@H](Cc2c[nH]c3ccccc23)NC(=O)[C@H](CCCNC(=N)N)NC(=O)[C@@H](Cc2ccccc2)NC(=O)[C@H](CCCN)NC1=O` [CTX-1617, Arg-Nle-cyclo(Cys-Orn-D-Phe-Arg-Trp-Cys)] (Ac-R[Nle]C[Orn][dF]RWC-NH2; disulfide 3-8), in assay [1], the Emax is 102% and the “MC4R selectivity vs MC3R” value turned out to be 11. For the same compound, the Emax in assay [2] came out at 102%. Also, the “MC4R selectivity vs MC1R” value in assay [3] came to 1.75.
`CC(=O)N[C@H]1CSSC[C@@H](C(N)=O)NC(=O)[C@H](Cc2ccccc2)NC(=O)[C@H](CCCNC(=N)N)NC(=O)[C@@H](Cc2ccccc2)NC(=O)[C@H](CCCNC(=N)N)NC(=O)CNC1=O` [CTX-1638, cyclo(Cys-Gly-Arg-D-Phe-Arg-Phe-Cys)] (Ac-CGR[dF]RFC-NH2; disulfide 1-7): the Emax stood at 75% in assay [1] and 110% in assay [2]. The “MC4R selectivity vs MC3R” value in assay [1] was found to be 1.66. Moreover, in assay [3], the “MC4R selectivity vs MC1R” value was found to be 1.04.
On the same counts, the results for `CC(=O)N[C@@H](CCCNC(=N)N)C(=O)N[C@H]1CSSC[C@@H](C(N)=O)NC(=O)[C@H](Cc2ccccc2)NC(=O)[C@H](CCCNC(=N)N)NC(=O)[C@@H](Cc2ccccc2)NC(=O)[C@H](Cc2ccncc2)NC(=O)C(C)(C)NC1=O` [CTX-1606, Arg-cyclo(Cys-Aib-Pal(4′)-D-Phe-Arg-Phe-Cys)] (Ac-RC[Aib][4Pal][dF]RFC-NH2; disulfide 2-8 (inferred)) are 7.69%, 92%, 0.62 and 2.99.
`CC(=O)N[C@@H](CCCNC(=N)N)C(=O)N[C@H]1CSSC[C@@H](C(N)=O)NC(=O)[C@H](Cc2c[nH]c3ccccc23)NC(=O)[C@H](CCCNC(=N)N)NC(=O)[C@@H](Cc2ccccc2)NC(=O)[C@H](CCCNC(=N)N)NC(=O)C(C)(C)NC1=O` [CTX-1292, Arg-cyclo(Cys-Aib-Arg-D-Phe-Arg-Trp-Cys)] (Ac-RC[Aib]R[dF]RWC-NH2; disulfide 2-8 (inferred)): in assay [1], the Emax was determined as 76% and the “MC4R selectivity vs MC3R” value is given as 21. Moreover, the Emax in assay [2] amounted to 90%. Also, the “MC4R selectivity vs MC1R” value in assay [3] worked out at 2.46.
